In article PMC11073913 (Archiv der Pharmazie, 2024):
“And” between values parts separate entries of the source, which are not always exact repeats. Identical values can stand only once. Like-named read-outs stand apart in the source and are kept apart here.

How the values were obtained:
[1] = tested on: LPS-induced ROS production in RAW 264.7 cells; experiment: cells; details: Mus musculus, RAW264.7, 18 h, read-out: ROS (IC50)
human recombinant COX-2 = molecular target: T1, human recombinant COX-2 (Homo sapiens, UniProt P35354); experiment: In vitro COX-2 inhibitory assay; type: biochemical; details: for Enhancement of anti-COX-2 activity by p-Cl on benzylidine: compared with unsubstituted compounds 4b, 4c, 4g, 4h respectively
T1 sequence (P35354 18-604): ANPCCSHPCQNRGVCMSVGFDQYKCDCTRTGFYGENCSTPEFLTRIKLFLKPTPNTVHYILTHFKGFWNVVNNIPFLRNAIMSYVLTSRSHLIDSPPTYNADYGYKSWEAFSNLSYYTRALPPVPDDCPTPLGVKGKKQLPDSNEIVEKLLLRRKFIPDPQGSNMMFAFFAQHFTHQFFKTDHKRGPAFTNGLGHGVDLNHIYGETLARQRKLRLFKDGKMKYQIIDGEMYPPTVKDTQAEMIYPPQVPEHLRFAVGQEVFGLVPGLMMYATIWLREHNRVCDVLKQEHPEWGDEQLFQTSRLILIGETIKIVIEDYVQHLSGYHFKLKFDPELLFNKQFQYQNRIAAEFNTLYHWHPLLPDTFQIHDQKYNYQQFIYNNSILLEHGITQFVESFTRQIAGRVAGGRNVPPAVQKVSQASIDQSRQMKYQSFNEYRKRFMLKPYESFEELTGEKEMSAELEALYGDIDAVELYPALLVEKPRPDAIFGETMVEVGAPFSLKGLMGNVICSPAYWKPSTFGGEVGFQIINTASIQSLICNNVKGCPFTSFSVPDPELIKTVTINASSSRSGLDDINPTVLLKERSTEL

[2] = tested on: LPS-induced TNF-α production in RAW 264.7 cells; details: for TNF-α level: cells treated with 25 μM compound, LPS-activated RAW 264.7
ovine COX-1 = molecular target: T2, ovine COX-1 (Ovis aries, UniProt P05979); experiment: In vitro COX-1 inhibitory assay; type: biochemical
T2 sequence (P05979 25-600): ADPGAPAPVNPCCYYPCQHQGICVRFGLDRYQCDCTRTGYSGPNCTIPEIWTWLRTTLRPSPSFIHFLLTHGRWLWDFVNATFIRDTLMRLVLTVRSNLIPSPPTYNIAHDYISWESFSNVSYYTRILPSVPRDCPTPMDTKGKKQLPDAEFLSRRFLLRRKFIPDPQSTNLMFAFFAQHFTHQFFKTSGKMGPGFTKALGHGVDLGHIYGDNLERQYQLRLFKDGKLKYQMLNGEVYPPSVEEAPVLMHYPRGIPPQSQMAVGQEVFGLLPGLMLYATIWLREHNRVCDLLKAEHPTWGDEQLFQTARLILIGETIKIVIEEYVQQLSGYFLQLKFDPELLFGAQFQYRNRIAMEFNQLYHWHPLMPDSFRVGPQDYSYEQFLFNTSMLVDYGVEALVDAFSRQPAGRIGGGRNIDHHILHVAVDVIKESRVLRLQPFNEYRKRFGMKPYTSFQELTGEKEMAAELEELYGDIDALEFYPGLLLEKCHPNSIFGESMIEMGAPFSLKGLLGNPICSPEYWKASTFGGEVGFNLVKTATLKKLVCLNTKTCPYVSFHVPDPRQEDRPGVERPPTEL

soybean 15-LOX = molecular target: T3, soybean 15-LOX (Glycine max, UniProt P08170); experiment: In vitro 15-LOX inhibitory assay; type: biochemical
T3 sequence (P08170 1-839): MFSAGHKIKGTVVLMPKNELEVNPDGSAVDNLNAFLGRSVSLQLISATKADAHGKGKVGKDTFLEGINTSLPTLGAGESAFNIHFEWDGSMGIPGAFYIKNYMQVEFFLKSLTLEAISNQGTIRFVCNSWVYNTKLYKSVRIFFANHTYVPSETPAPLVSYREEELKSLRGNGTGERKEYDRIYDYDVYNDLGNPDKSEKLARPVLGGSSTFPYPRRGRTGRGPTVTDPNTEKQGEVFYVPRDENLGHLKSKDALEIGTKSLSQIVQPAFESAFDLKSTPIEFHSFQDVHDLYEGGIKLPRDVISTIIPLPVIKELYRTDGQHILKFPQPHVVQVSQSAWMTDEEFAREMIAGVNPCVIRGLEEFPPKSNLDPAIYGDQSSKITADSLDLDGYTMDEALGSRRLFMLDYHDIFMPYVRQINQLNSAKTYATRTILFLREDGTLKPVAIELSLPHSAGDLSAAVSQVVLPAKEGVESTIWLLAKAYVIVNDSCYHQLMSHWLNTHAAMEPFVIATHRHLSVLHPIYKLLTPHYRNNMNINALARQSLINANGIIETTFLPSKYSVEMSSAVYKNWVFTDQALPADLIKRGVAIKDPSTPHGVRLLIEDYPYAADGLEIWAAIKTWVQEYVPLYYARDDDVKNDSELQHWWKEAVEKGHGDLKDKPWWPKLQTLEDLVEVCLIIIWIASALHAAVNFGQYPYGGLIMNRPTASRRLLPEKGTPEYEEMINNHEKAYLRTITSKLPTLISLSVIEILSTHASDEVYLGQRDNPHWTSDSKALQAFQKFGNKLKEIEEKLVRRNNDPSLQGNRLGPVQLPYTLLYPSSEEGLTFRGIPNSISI

[3] = tested on: LPS-induced IL-6 production in RAW 264.7 cells; details: for IL-6 level: cells treated with 25 μM compound, LPS-activated RAW 264.7

COc1ccc2c(c1)c(CC(=O)O)c(C)n2C(=O)c1ccc(Cl)cc1 [Indomethacin, indomethacin, reference compound]
IC50 [1]: 55 ± 1.26 µM

Cc1ccc(NC(=O)CSC2=N/C(=C\c3ccc(Cl)cc3)C(=O)N2c2ccccc2)cc1 [Compound 4n, (Z)-2-{[4-(4-Chlorobenzylidene)-5-oxo-1-phenyl-4,5-dihydro-1H-imidazol-2-yl]thio}-N-(4-tolyl)acetamide]
IC50 [1]: 41 ± 1.39 µM
IC50 (human recombinant COX-2): 0.12 ± 0.053 µM
SI (Selectivity index = COX-1 IC50/COX-2 IC50) (human recombinant COX-2): 79.96
TNF-α level [2]: 37.28 ± 14.95 pg/mL
IC50 (ovine COX-1): 9.45 ± 1.33 µM
IC50 (soybean 15-LOX): 3.13 ± 1.49 µM
IL-6 level [3]: 36.56 ± 14.95 pg/mL

O=C(CSC1=N/C(=C\c2ccc(Cl)cc2)C(=O)N1c1ccccc1)Nc1ccc(Br)cc1 [Compound 4m, (Z)-N-(4-Bromophenyl)-2-[(4-(4-chlorobenzylidene)-5-oxo-1-phenyl-4,5-dihydro-1H-imidazol-2-yl)thio]acetamide]
IC50 [1]: 38.4 ± 1.37 µM
IC50 (human recombinant COX-2): 0.18 ± 0.082 µM
SI (Selectivity index = COX-1 IC50/COX-2 IC50) (human recombinant COX-2): 44.12
TNF-α level [2]: 27.89 pg/mL and 27.89 ± 0.90 pg/mL
IC50 (ovine COX-1): 8 ± 1.31 µM
IC50 (soybean 15-LOX): 4.21 ± 1.53 µM
IL-6 level [3]: 27.16 ± 0.9 pg/mL

O=C(CSC1=N/C(=C\c2ccccc2)C(=O)N1c1ccccc1)Nc1ccccc1 [Compound 4a, (Z)-2-[(4-Benzylidene-5-oxo-1-phenyl-4,5-dihydro-1H-imidazol-2-yl)thio]-N-phenylacetamide]
IC50 [1]: 44.6 ± 1.43 µM
IC50 (human recombinant COX-2): 0.12 ± 0.06 µM
SI (Selectivity index = COX-1 IC50/COX-2 IC50) (human recombinant COX-2): 62.97
TNF-α level [2]: 57.28 ± 18.75 pg/mL
IC50 (ovine COX-1): 7.83 ± 1.19 µM
IC50 (soybean 15-LOX): 5.71 ± 2.56 µM
IL-6 level [3]: 37.82 ± 1.06 pg/mL

O=C(CSC1=N/C(=C\c2ccccc2)C(=O)N1c1ccccc1)NCc1ccccc1 [Compound 4i, (Z)-N-Benzyl-2-[(4-benzylidene-5-oxo-1-phenyl-4,5-dihydro-1H-imidazol-2-yl)thio]acetamide]
IC50 [1]: 21.8 ± 1.26 µM
IC50 (human recombinant COX-2): 0.09 ± 0.041 µM
SI (Selectivity index = COX-1 IC50/COX-2 IC50) (human recombinant COX-2): 121.60
TNF-α level [2]: 46.98 ± 25.83 pg/mL
IC50 (ovine COX-1): 10.6 ± 1.62 µM
IC50 (soybean 15-LOX): 2.82 ± 1.27 µM
IL-6 level [3]: 21.00 pg/mL and 21.00 ± 9.39 pg/mL

O=C(CSC1=N/C(=C\c2ccccc2)C(=O)N1c1ccccc1)Nc1cccc(C(F)(F)F)c1 [Compound 4h, (Z)-2-[(4-Benzylidene-5-oxo-1-phenyl-4,5-dihydro-1H-imidazol-2-yl)thio]-N-[3-(trifluoromethyl)phenyl]acetamide]
IC50 [1]: 45.4 ± 1.23 µM
IC50 (human recombinant COX-2): 0.28 ± 0.155 µM
SI (Selectivity index = COX-1 IC50/COX-2 IC50) (human recombinant COX-2): 39.99
TNF-α level [2]: 24.15 ± 1.05 pg/mL
IC50 (ovine COX-1): 11.1 ± 1.63 µM
IC50 (soybean 15-LOX): 5.71 ± 2.56 µM
IL-6 level [3]: 23.42 pg/mL and 23.42 ± 1.05 pg/mL

Cc1ccc(-c2cc(C(F)(F)F)nn2-c2ccc(S(N)(=O)=O)cc2)cc1 [Celecoxib, celecoxib, reference compound]
IC50 [1]: 44.6 ± 1.18 µM
TNF-α level [2]: 25.36 ± 6.364 pg/mL
TNF-α level ([2]; listed as celecoxib): 25.36 pg/mL
IL-6 level [3]: 24.64 ± 6.36 pg/mL
IL-6 level ([3]; listed as celecoxib): 24.64 pg/mL

O=C(CSC1=N/C(=C\c2ccc(Cl)cc2)C(=O)N1c1ccccc1)Nc1ccccc1 [Compound 4j, (Z)-2-{[4-(4-Chlorobenzylidene)-5-oxo-1-phenyl-4,5-dihydro-1H-imidazol-2-yl]thio}-N-phenylacetamide]
IC50 [1]: 33.4 ± 1.27 µM
IC50 (human recombinant COX-2): 0.13 ± 0.064 µM
SI (Selectivity index = COX-1 IC50/COX-2 IC50) (human recombinant COX-2): 94.97
TNF-α level [2]: 50.31 ± 10.22 pg/mL
IC50 (ovine COX-1): 12 ± 1.67 µM
IC50 (soybean 15-LOX): 4.75 ± 2.31 µM
IL-6 level [3]: 49.59 pg/mL and 49.59 ± 10.22 pg/mL

O=C(CSC1=N/C(=C\c2ccc(Cl)cc2)C(=O)N1c1ccccc1)NCc1ccccc1 [Compound 4r, (Z)-N-Benzyl-2-[(4-(4-chlorobenzylidene)-5-oxo-1-phenyl-4,5-dihydro-1H-imidazol-2-yl)thio]acetamide]
IC50 [1]: 72.4 ± 1.85 µM
IC50 (human recombinant COX-2): 0.13 ± 0.057 µM
SI (Selectivity index = COX-1 IC50/COX-2 IC50) (human recombinant COX-2): 78.00
TNF-α level [2]: 21.02 ± 5.03 pg/mL
IC50 (ovine COX-1): 10.1 ± 1.6 µM
IC50 (soybean 15-LOX): 2.47 ± 1.14 µM
IL-6 level [3]: 20.29 ± 5.03 pg/mL

O=C(CSC1=N/C(=C\c2ccc(Cl)cc2)C(=O)N1c1ccccc1)Nc1cccc(C(F)(F)F)c1 [Compound 4q, (Z)-2-{[4-(4-Chlorobenzylidene)-5-oxo-1-phenyl-4,5-dihydro-1H-imidazol-2-yl]thio}-N-[3-(trifluoromethyl)phenyl]acetamide]
IC50 [1]: 56.2 ± 1.26 µM
IC50 (human recombinant COX-2): 0.09 ± 0.04 µM
SI (Selectivity index = COX-1 IC50/COX-2 IC50) (human recombinant COX-2): 111.90
Enhancement of anti-COX-2 activity by p-Cl on benzylidine (human recombinant COX-2): 3.1 folds
TNF-α level [2]: 5.26 pg/mL and 5.26 ± 0.61 pg/mL
TNF-α inhibitory activity, fold more than unsubstituted benzylidine 4h ([2]; vs 4h): 4.6 fold
TNF-α inhibition, fold more potent than celecoxib ([2]; vs celecoxib): ~ 5 fold
IC50 (ovine COX-1): 10.1 ± 1.61 µM
IC50 (soybean 15-LOX): 3.99 ± 1.9 µM
IL-6 level [3]: 4.54 ± 0.61 pg/mL
IL-6 inhibitory activity, folds more than unsubstituted benzylidine 4h ([3]; vs 4h): ~ 5 folds

COc1ccc(NC(=O)CSC2=N/C(=C\c3ccc(Cl)cc3)C(=O)N2c2ccccc2)cc1 [Compound 4o, (Z)-2-{[4-(4-Chlorobenzylidene)-5-oxo-1-phenyl-4,5-dihydro-1H-imidazol-2-yl]thio}-N-(4-methoxyphenyl)acetamide]
IC50 [1]: 24.2 ± 1.26 µM
IC50 (human recombinant COX-2): 0.1 ± 0.044 µM
SI (Selectivity index = COX-1 IC50/COX-2 IC50) (human recombinant COX-2): 111.27
TNF-α level [2]: 29.10 ± 4.54 pg/mL
IC50 (ovine COX-1): 11 ± 1.53 µM
IC50 (soybean 15-LOX): 3.24 ± 1.46 µM
IL-6 level [3]: 28.37 pg/mL and 28.37 ± 4.54 pg/mL

COc1cc(NC(=O)CSC2=N/C(=C\c3ccc(Cl)cc3)C(=O)N2c2ccccc2)cc(OC)c1OC [Compound 4p, (Z)-2-{[4-(4-Chlorobenzylidene)-5-oxo-1-phenyl-4,5-dihydro-1H-imidazol-2-yl]thio}-N-(3,4,5-trimethoxyphenyl)acetamide]
IC50 [1]: 25.4 ± 1.26 µM
IC50 (human recombinant COX-2): 0.08 ± 0.037 µM
SI (Selectivity index = COX-1 IC50/COX-2 IC50) (human recombinant COX-2): 152.23 and 152.33
Enhancement of anti-COX-2 activity by p-Cl on benzylidine (human recombinant COX-2): 1.75 folds
TNF-α level [2]: 31.42 ± 3.70 pg/mL
IC50 (ovine COX-1): 12.8 ± 1.83 µM
IC50 (soybean 15-LOX): 2.69 ± 1.29 µM
IL-6 level [3]: 30.70 pg/mL and 30.70 ± 3.70 pg/mL
